Drawing on patent US6337336B1, “Azaindole derivatives for the treatment of depression” (American Home Products Corporation, priority 1999, dated 2002), this text covers melting point, Ki and Emax for six compounds.

Counter-ions that a name gives are not always drawn.

One data set addresses T1, serotonin transporter (Rattus norvegicus, UniProt P31652).
T1 construct: frontal cortical membranes prepared from male Sprague-Dawley rats; from tissue; host or cells: rat frontal cortex membranes (male Sprague-Dawley)
The data set is described as follows: serotonin transporter affinity, 3H-paroxetine binding in rat frontal cortical membranes. The conditions noted are these: 3H-paroxetine 0.1 nM, read-out: ST (Ki). How it is done:
A protocol similar to that used by Cheetham et al., Neuropharmacol., 32:737 (1993) was used to determine the affinity of compounds for the serotonin transporter. Briefly, frontal cortical membranes prepared from male Sprague-Dawley rats were incubated with ^3H-paroxetine (0.1 nM) for 60 min at 25° C. All tubes also contained either vehicle, test compound (one to eight concentrations), or a saturating concentration of fluoxetine (10 μM) to define […]. All reactions were terminated by the addition of ice cold Tris buffer followed by rapid filtration using a Tom Tech filtration device to separate bound from free ^3H-paroxetine. Bound radioactivity was quantitated using a Wallac 1205 Beta Plate® counter. Nonlinear regression analysis was used to determine IC50 values which were converted to Ki values using the method set forth in Cheng and Prusoff, Biochem. Pharmacol., 22:3099 (1973) (Ki=IC50/((Radioligand conc.)/(1+KD)).

In another data set the target is T2, 5-HT1A cloned receptor (Homo sapiens, UniProt P08908).
T2 construct: expressed in transfected cells
T2 sequence (P08908 1-422): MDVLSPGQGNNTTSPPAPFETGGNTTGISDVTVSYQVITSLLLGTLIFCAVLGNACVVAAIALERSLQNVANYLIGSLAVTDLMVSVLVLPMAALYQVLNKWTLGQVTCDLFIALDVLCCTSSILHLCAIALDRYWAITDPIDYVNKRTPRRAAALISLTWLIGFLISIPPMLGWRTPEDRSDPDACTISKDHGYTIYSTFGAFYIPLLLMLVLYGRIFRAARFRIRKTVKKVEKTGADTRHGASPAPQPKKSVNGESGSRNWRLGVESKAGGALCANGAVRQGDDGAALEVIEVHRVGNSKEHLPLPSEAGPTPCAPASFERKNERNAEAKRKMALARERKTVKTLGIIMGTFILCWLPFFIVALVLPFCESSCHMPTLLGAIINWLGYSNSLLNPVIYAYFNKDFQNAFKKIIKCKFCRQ
Nature of the data set: [35S]-GTPγS binding assay. The format is biochemical. As to conditions: relative to maximum agonist response defined by excess 8-OH-DPAT. How it is done:
The [^35S]-GTPγS binding assay was similar to that used by Lazareno and Birdsall, Br. J. Pharmacol. 109:1120 (1993). Briefly, 5-HT1A cloned receptor membrane fragments (as used for 5-HT1A receptor binding assays) were stored at −70° C. When needed, membranes were rapidly thawed, centrifuged at 40,000×g for 10 minutes and resuspended at 4° C. for 10 minutes in assay buffer (25 mM HEPES, 3 mM MgCl2, 100 mM NaCl, 1 mM EDTA, 10 uM GDP, […], pH 8.0). These membranes were then incubated for 30 min at 30° C. with [^35S]GTPgS (1 nM) in the presence of vehicle, test compound (one to eight concentrations), or excess 8-OH-DPAT to define maximum agonist response. All reactions were terminated by the addition of ice cold Tris buffer followed by rapid filtration using a Tom Tech® filtration device to separate bound from free [^35S]GTPgS. Agonists produced an increase in the amount of [^35S]GTPgS bound whereas antagonists produced no increase in binding. Bound radioactivity was counted and analyzed as above.

The target of data set [1] is T3, human 5-HT1A receptor (Homo sapiens, UniProt P08908).
T3 sequence (P08908 1-422): T2 sequence (P08908 1-422)
Nature of the data set: human 5-HT1A receptor binding with [3H]8-OH-DPAT in CHO cell membranes.
Protocol: A stable Chinese hamster ovary cell line expressing the human 5-HT1A receptor subtype (5-HT1A.CHO cells) was employed throughout this study. Cells were maintained in DMEM supplemented with 10% fetal calf serum, non-essential amino acids and penicillin/ streptomycin.
Cells were grown to 95-100% confluency as a monolayer before membranes were harvested for binding studies. Cells were gently scraped from the culture plates, transferred to centrifuge tubes, and washed twice by centrifugation (2000 rpm for 10 min., 4° C.) in buffer (50 mM Tris; pH 7.5). The resulting pellets were aliquoted and maintained at −80° C. On the day of assay, the cells were thawed on ice, and resuspended in buffer. Studies were conducted using [^3H]8-OH-DPAT as the radioligand. The binding assay was performed in 96 well microtiter plates in a final total volume of 250 μL of buffer. Comparison experiments were performed by using 7 concentrations of unlabelled drug and a final ligand concentration of 1.5 nM. Non-specific binding was determined in the presence of 10 μM 5HT. Saturation analysis was conducted by using [^3H]8-OH-DPAT at concentrations ranging from 0.3-30 nM. Following a 30 minute incubation at room temperature, the reaction was terminated by the addition of ice cold buffer and rapid filtration using a M-96 Brandel Cell Harvester (Gaithersburg, MD) through a GF/B filter presoaked for 30 minutes in 0.5% polyethyleneimine.

Data set [2] deals with T3, human 5-HT1A receptor. The data set is described as follows: forskolin-stimulated cAMP formation in 5-HT1A.CHO cells (cAMP SPA assay). The format is cell-based. More on the design: expressed in transfected cells. As to conditions: forskolin 1 uM. The method, then:
The following assays were performed by incubating the cells with DMEM containing 25 mM HEPES, 5 mM theophylline and 10 μM pargyline for a period of 20 minutes at 37° C. Functional activity was assessed by treating the cells with forskolin (1 uM final concentration) followed immediately by test compound (6 concentrations) for an additional 10 min at 37° C. In separate experiments, 6 concentrations of antagonist were preincubated for 20 min prior to the addition of 10 nM 8-OH-DPAT and forskolin. The reaction was terminated by removal of the media and addition of 0.5 ml ice cold assay buffer. Plates were stored at −20° C. prior to assessment of cAMP formation by a cAMP SPA assay (Amersham).

T1 sequence (P31652 whole entry): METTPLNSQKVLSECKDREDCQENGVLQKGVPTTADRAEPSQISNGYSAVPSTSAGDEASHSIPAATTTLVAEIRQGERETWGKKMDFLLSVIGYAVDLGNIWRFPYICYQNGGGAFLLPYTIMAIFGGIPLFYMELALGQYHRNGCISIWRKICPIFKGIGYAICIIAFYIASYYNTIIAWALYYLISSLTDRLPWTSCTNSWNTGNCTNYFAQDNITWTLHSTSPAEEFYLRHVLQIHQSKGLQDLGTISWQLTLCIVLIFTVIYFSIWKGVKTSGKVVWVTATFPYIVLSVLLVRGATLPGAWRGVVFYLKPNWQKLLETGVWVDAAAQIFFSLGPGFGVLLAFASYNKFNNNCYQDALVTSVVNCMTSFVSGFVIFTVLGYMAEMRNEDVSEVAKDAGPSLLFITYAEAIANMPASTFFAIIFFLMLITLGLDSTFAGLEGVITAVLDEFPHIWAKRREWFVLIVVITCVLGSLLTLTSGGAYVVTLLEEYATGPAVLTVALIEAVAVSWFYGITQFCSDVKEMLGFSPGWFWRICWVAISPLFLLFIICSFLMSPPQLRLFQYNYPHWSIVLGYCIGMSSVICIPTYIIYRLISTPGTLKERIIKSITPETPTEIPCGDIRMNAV

With `C1=C(c2c[nH]c3ncccc23)CCN(CCOc2cccc3c2OCCO3)C1` (as salt: oxalate) [Example 1, 3-{1-[2-(2,3-Dihydro-benzo[1,4]dioxin-5-yloxy)-ethyl]-1,2,3,6-tetrahydro-pyridin-4-yl}-1H-pyrrolo[2,3-b]pyridine], the melting point was in the range of 164 to 167 °C.

In the case of `C1=C(c2c[nH]c3ncccc23)CCN(CCOc2cccc3[nH]ccc23)C1` (as salt: oxalate) [Example 2, 3-{1-[2-(1H-Indol-4-yloxy)-ethyl]-1,2,3,6-tetrahydro-pyridin-4-yl}-1H-pyrrolo[2,3-b]pyridine], the melting point was 106 to 109 °C.

Compound `C1=C(c2c[nH]c3ncccc23)CCN(CCOc2cccc3ncccc23)C1` (as salt: oxalate) [Example 3, 5-{2-[4-(1H-Pyrrolo[2,3-b]pyridin-3-yl)-3,6-dihydro-2H-pyridin-1-yl]-ethoxy}-quinoline] had a melting point of 202 to 205 °C.

Take `C1=C(c2c[nH]c3ncccc23)CCN(CCOc2cccc3c2OCCO3)C1` [Example 1, 3-{1-[2-(2,3-Dihydro-benzo[1,4]dioxin-5-yloxy)-ethyl]-1,2,3,6-tetrahydro-pyridin-4-yl}-1H-pyrrolo[2,3-b]pyridine]: the Ki came out at 18 nM at serotonin transporter and 43.9 nM at human 5-HT1A receptor [1]. The compound also yielded an Emax on 5-HT1A cloned receptor of 30%.

With `C1=C(c2c[nH]c3ncccc23)CCN(CCOc2cccc3[nH]ccc23)C1` [Example 2, 3-{1-[2-(1H-Indol-4-yloxy)-ethyl]-1,2,3,6-tetrahydro-pyridin-4-yl}-1H-pyrrolo[2,3-b]pyridine], the figures for the Ki on serotonin transporter and on human 5-HT1A receptor [1] were 1.46 nM and 10.9 nM, respectively. The Emax stood at 9% on 5-HT1A cloned receptor and 0% at human 5-HT1A receptor [2].

In the case of `C1=C(c2c[nH]c3ncccc23)CCN(CCOc2cccc3ncccc23)C1` [Example 3, 5-{2-[4-(1H-Pyrrolo[2,3-b]pyridin-3-yl)-3,6-dihydro-2H-pyridin-1-yl]-ethoxy}-quinoline], the inhibition constant (Ki) at serotonin transporter turned out to be 6.89 nM; on human 5-HT1A receptor [1], 71.6 nM. Moreover, the Emax at 5-HT1A cloned receptor and at human 5-HT1A receptor [2] was 0% in each case.
